{"source": "paper PMC8805583", "about": "“Discovery of Herbacetin as a Novel SGK1 Inhibitor to Alleviate Myocardial Hypertrophy” (Advanced Science, 2021)", "system": "rat cardiomyocytes", "test": "ROS (DCFH-DA) and Ca2+ (Fluo-4 AM) detection in PE-stimulated cardiomyocytes", "format": "cell-based", "excerpt": "Elevated cytoplasmic calcium was also observed in PE‐stimulated rat cardiomyocytes after Fluo‐4 AM staining. […] Since the channel subunit Orai1 and stromal interaction molecule 1 (STIM1) are known to participate in the orchestration of Ca^2+ entry into cells and are regulated by multiple kinases including SGK1,^[ [33] ^] we examined if HBT regulates their activities. […] Orai1 may be regulated by Nedd4‐like E3 ubiquitin protein ligase (Nedd4l) mediated degradation or the transcription factor nuclear factor‐κB (NF‐κB) dependent transcription, so we detected the effects of HBT on SGK1 downstream proteins. […] Therefore, HBT may also attenuate cardiomyocyte hypertrophy by reducing cytoplasmic calcium level.\nFluo-4 AM were obtained from Beyotime. SGK1 antibody and GAPDH antibody were obtained from Beyotime. FoxO1, Phospho-FoxO1 (Ser256), p44/42 MAPK (Erk1/2), […]\np65, Phospho-GSK-3β (Ser9), GSK-3β, Phospho-NDRG1 (Thr346), NDRG1, Phospho-NEDD4L (Ser342), NEDD4L, HO-1, Nrf2 and MnSOD antibody were obtained from Cell Signaling. Phospho-SGK1(S422) antibody was obtained from Affinity. Orai1, STIM1, ACTA1 and FLAG antibody were obtained from Proteintech. BNP antibody was obtained from Abcam. ANP antibody was obtained from Santa Cruz Biotechnology. Myosin antibody was obtained from Sigma-Aldrich. Reference compounds were obtained from Shanghai Yuanye Biotechnology. Lipofectamine 2000 transfection reagent was purchased from Invitrogen. Protein A/G agarose was purchased from Beaver Biotechnology.\nPhenylephrine (PE) was obtained from Aladdin. Deionized water was prepared with an Elga PURELAB flex system (ELGA LabWater, UK). […]\nMicro® Confocal High-Content Imaging System (Molecular Devices). […]\nBSA for 1 h, the cells were incubated overnight at 4 °C with rabbit anti-FoxO1 antibody and then with goat anti-rabbit AlexaFluor 488–conjugated antibody for 1 h at room temperature.\nNuclei were stained with Hoechst. Images were acquired using a high-resolution laser confocal microscope (Leica) using an oil immersion A-Plan ×63 objective.\n3. ROS and Ca2+ Detection\nROS and Ca2+ levels were detected using DCFH-DA and Fluo-4 AM reagent (Beyotime) respectively according to the manufacturer’s instructions. After incubated for 48 hours, the supernatant was removed and cells were washed with PBS for three times. 100 μL DCFH-DA […]\nor Fluo-4 AM working solution was added to each well and incubated at 37℃ for 20 minutes.\nThen the cells were washed with PBS for 3 times and images were acquired using an ImageXpress Micro® Confocal High-Content Imaging System (Molecular Devices). The mean fluorescence intensity of cells positive for DCFH-DA or Fluo-4 AM staining was […]\n4. Histology and Immunohistochemistry (IHC) […]\n(Sigma) according to the manufacturer’s protocol. […]"}
{"smiles": "O=c1c(O)c(-c2ccc(O)cc2)oc2c(O)c(O)cc(O)c12", "note": "[HBT, herbacetin]", "values": [{"measurement": "cytoplasmic calcium accumulation, Fluo-4 AM staining", "setting": "PE stimulation, cotreatment", "result": "effectively blocked"}, {"measurement": "free radicals (ROS), DCFH-DA staining", "setting": "PE stimulation, cotreatment", "result": "greatly inhibited"}, {"measurement": "MnSOD expression", "setting": "PE, western blot", "result": "restored"}, {"measurement": "phosphorylation level of Erk", "setting": "PE, western blot", "result": "downregulated"}]}
